Measurements as given in PMC6255327, “Design of Antimicrobially Active Small Amphiphilic Peptide Dendrimers” (Molecules, 2009).
Where a name gives a salt, the structure may show the parent alone.

What was measured:
[1] = test system: E.coli ATCC 25922; type: cell-based, Escherichia coli; conditions: ATCC 25922, 24 h
Description: (§1) Bacteria. Staphylococcus aureus ATCC 25923, Pseudomonas aeruginosa ATCC 27853, Escherichia coli ATCC 25922 and Staphylococcus aureus ATCC 43300 were cultivated on tryptone - soy agar (TSA; Oxoid). Klebsiella pneumoniaeATCC 13882, Bordetella bronchiseptica ATCC 4617, Acinetobacter baumannii ATCC 19606 were cultivated onto nutrient agar (Difco). Escherichia coli ATCC BAA-198 was cultivated on TSA with ceftazidime (10 µg/mL or 15.7 μM; Sigma). All strains were incubated during 24 hrs at 37 °C.
(§2) Medium. Mueller – Hinton Broth (Oxoid) was supplemented with cations: 12.5 mg Mg ^++/L and25 mg Ca^++/L. The pH of the medium after sterilization is between 7.2 and 7.4 [cation–adjusted Mueller – Hinton Broth” (CAMHB)].
(§3) Reference method. Broth microdilution susceptibility test was performed as described in […] reference method M7-A7 (2). A series of the twofold dendrimers dilutions in DMSO and twofold polymyxin B and penicillin G dilutions in CAMHB were diluted […] with CAMHB. Aliquots (95 µL) were dispensed into microdilution sterile plates (Mar-Four). Then, bacteria inoculum (5 µL) containing 5 × 10^4 CFU/mL were added. The final concentration of dendrimers ranged from 128 to 2 µg/mL [or 105 to 1.6 μM for an average molecular mass for 7 series (1213) and 61 to 0.9 μM for an average molecular mass for 10 series(2,103)], polymyxin B and penicillin G from 8 – 0.15 µg /mL (or 5.8 to 0.1 μM and 21.5 to 0.4 μM, respectively for polymyxin B and penicillin G), all in twofold dilution steps. The plates were incubated at 35 °C and read after 18 or 24 hours depending on bacterial strain. MICs (Minimal Inhibitory Concentration) was defined as the lowest drug concentration that reduced growth by 100%.

[2] = test system: E. coli ATCC BAA-198; type: cell-based, Escherichia coli; conditions: ATCC BAA-198, 24 h
Description: as §1, §2, §3

[3] = test system: K. pneumoniae ATCC 13882; type: cell-based, Klebsiella pneumoniae; conditions: ATCC 13882, 24 h
Description: as §1, §2, §3

[4] = test system: C. albicans ATCC 90028; type: cell-based, Candida albicans; conditions: ATCC 90028, 48 h, pH 7
Description: (§4) Yeasts: Candida albicans ATCC 90028, Candida parapsilosis ATCC 22019 and Candida krusei ATCC 6258 were cultivated onto Sabouraud dextrose agar (Difco) during 24 hrs at 35 °C.
(§5) Medium: RPMI – 1640 (Sigma) supplemented with 0.2% (wt/vol) glucose, 0.3 g/L L-glutamine, 0.0053 g/L phenol red, buffered with morpholinopropanesulfonic acid (MOPS; Sigma) at a final concentration of 0.165 M and adjusted to pH 7.0 was prepared.
(§6) Reference Method: The broth microdilution susceptibility test was performed as described in Clinical and Laboratory Standards Institute (CLSI) reference method M27 – A2 (1). A series of the twofold dendrimers and amphotericin B dilutions in DMSO were diluted 1:49 with RPMI.

[5] = test system: S. aureus ATCC 43300; type: cell-based, Staphylococcus aureus; conditions: ATCC 43300, 24 h
Description: as §1, §2, §3

[6] = test system: C. krusei ATCC 6258; test: microbe, parasite or virus in culture; type: cell-based, Candida krusei; conditions: ATCC 6258, 48 h, pH 7; read-out: Minimal inhibitory concentration (MIC)
Description: as §4, §5, §6

[7] = test system: A. baumani ATCC 19606; type: cell-based, Acinetobacter baumannii; conditions: ATCC 19606, 24 h
Description: as §1, §2, §3

[8] = test system: B. bronchiseptica ATCC 4617; type: cell-based, Bordetella bronchiseptica; conditions: ATCC 4617, 24 h
Description: as §1, §2, §3

[9] = test system: P. aeruginosa ATCC 27853; type: cell-based, Pseudomonas aeruginosa; conditions: ATCC 27853, 24 h
Description: as §1, §2, §3

[10] = test system: C. parapsilosis ATCC 22019; type: cell-based, Candida parapsilosis; conditions: ATCC 22019, 48 h, pH 7
Description: as §4, §5, §6

[11] = test system: S. aureus ATCC 25923; test: microbe, parasite or virus in culture; type: cell-based, Staphylococcus aureus; conditions: ATCC 25923, 24 h, pH 7.2; read-out: Minimal inhibitory concentration (MIC)
Description: as §1, §2, §3

[12] = test system: human red blood cells; test: Hemolysis assay; type: cell-based; conditions: at a concentration of 400 μM, 1% hematocrit in PBS pH 7.4, 30 min at 23 °C, absorbance at 540 nm
Description: Dendrimer induced hemolysis was observed as previously reported. Briefly, serum free human red blood cells obtained from the Institute of Hematology and Transfusion Medicine in Warsaw, were suspended in phosphate buffered saline (PBS, pH 7.4). Prepared suspension of 1% hematocrit was incubated with serial concentration of dendrimers for 30 min at 23 °C. After centrifugation (1,000 rpm, 5 min) the absorbance of supernatant was measured at 540 nm (Jasco 630, Japan). A value of 100% hemolysis was determined by incubation of erythrocytes with double-distilled water (30 min at 23^o). In a control experiment, cells were incubated in buffer without peptide and absorbance at 540 nm value was used as a blank.
A - absorbance of the samples incubated with dendrimers; Ab – absorbance of the blank samples; A100% - absorbance of the reference; Ac - absorbance of red blood cells in PBS, hematocrit 1%.

| SMILES | Minimal inhibitory concentration (MIC) [1] | Minimal inhibitory concentration (MIC) [2] | Minimal inhibitory concentration (MIC) [3] | Minimal inhibitory concentration (MIC) [4] | Minimal inhibitory concentration (MIC) [5] | MIC [6] | Minimal inhibitory concentration (MIC) [7] | Minimal inhibitory concentration (MIC) [8] | Minimal inhibitory concentration (MIC) [9] | Minimal inhibitory concentration (MIC) [10] | MIC [11] | toxicity (hemolysis) [12] |
| --- | --- | --- | --- | --- | --- | --- | --- | --- | --- | --- | --- | --- |
| NCCCC[C@H](NC(=O)OCc1ccccc1Cl)C(=O)NCCCN[C@@H](CCCN(CCCNC(=O)[C@H](CCCCN)NC(=O)OCc1ccccc1Cl)CCCNC(=O)[C@H](CCCCN)NC(=O)OCc1ccccc1Cl)C(=O)NCc1ccccc1 [Compound 7g, N,N,N’-tris[(N^α-2-chlorobenzyloxycarbonyl)-L-lysil-3-aminopropyl]-L-ornithine benzylamide penta-hydrochloride] | 21.8 µM | 10.9 µM | 87 µM | 10.9 µM | 10.9 µM | 5.4 µM | 5.4 µM | 2.7 µM | 21.8 µM | 5.4 µM | 10.9 µM | 32% |
| NCCCC[C@H](NC(=O)OCc1ccccc1Cl)C(=O)N[C@@H](Cc1ccccc1)C(=O)NCCCN(CCCNC(=O)[C@H](Cc1ccccc1)NC(=O)[C@H](CCCCN)NC(=O)OCc1ccccc1Cl)CCC[C@@H](CO)N(CCCNC(=O)[C@H](Cc1ccccc1)NC(=O)[C@H](CCCCN)NC(=O)OCc1ccccc1Cl)CCCNC(=O)[C@H](Cc1ccccc1)NC(=O)[C@H](CCCCN)NC(=O)OCc1ccccc1Cl [Compound 10c, N,N',N,N’-tetrakis[(N^α-2-chlorobenzyloxycarbonyl)-L-lysil-L-phenylalanyl-3-aminopropyl]-L-α,δ-diaminopentanol hexahydrochloride] | 27.3 µM | 13.6 µM | 54 µM | 54 µM | 13.6 µM | 27.3 µM | 27.3 µM | 6.8 µM | 54 µM | 54 µM | 27.2 µM |  |
| NCCCC[C@H](NC(=O)OCc1ccccc1Cl)C(=O)N[C@@H](Cc1ccccc1)C(=O)NCCCN(CCCC[C@@H](CO)N(CCCNC(=O)[C@H](Cc1ccccc1)NC(=O)[C@H](CCCCN)NC(=O)OCc1ccccc1Cl)CCCNC(=O)[C@H](Cc1ccccc1)NC(=O)[C@H](CCCCN)NC(=O)OCc1ccccc1Cl)CCCNC(=O)[C@H](Cc1ccccc1)NC(=O)[C@H](CCCCN)NC(=O)OCc1ccccc1Cl [Compound 10d, N,N',N,N’-tetrakis[(N^α-2-chlorobenzyloxycarbonyl)-L-lysil-L-phenylalanyl-3-aminopropyl]-L-α,ε-diaminohexanol hexahydrochloride] | 6.8 µM | 3.4 µM | >54 µM | 6.8 µM | 1.7 µM | 3.4 µM | 3.4 µM | 1.7 µM | 14 µM | 3.4 µM | 3.4 µM |  |
